Results reported in ChEMBL document CHEMBL6115036, “Exploration of membrane-active cephalosporin derivatives as potent antibacterial agents against Staphylococcus aureus biofilms and persisters” (Eur J Med Chem, 2025).
Values after ≈ are worked out from the molar mass of the structure shown. Active and inactive are the calls of the source. The calls are words filed in the database; no cut-off is given here.

Columns and labels:
Staphylococcus aureus [1] = assay: Induction of inner membrane permeability in Staphylococcus aureus assessed as increase in fluorescence intensity at 16 ug/ml measured for 20 mins by PI dye based analysis; assay type: functional, organism-based; settings: dose 16.0 µg/ml
Escherichia coli = assay: Antimicrobial activity against Escherichia coli incubated for 16 to 18 hrs by broth dilution assay; assay type: functional; settings: time 16-18 hrs
Enterococcus faecalis = assay: Antimicrobial activity against Enterococcus faecalis incubated for 16 to 18 hrs by broth dilution assay; assay type: functional; settings: time 16-18 hrs
[2] = system: Stenotrophomonas maltophilia; assay: Antimicrobial activity against Stenotrophomonas maltophilia incubated for 16 to 18 hrs by broth dilution assay; assay type: functional; settings: time 16-18 hrs
[3] = Hemolytic activity in sheep red blood cells incubated for 1 hr; assay type: toxicity, cell-based, Ovis aries, Erythrocyte
Staphylococcus aureus [4] = assay: Induction of cytoplasmic membrane depolarization in Staphylococcus aureus assessed as increase in fluorescence intensity at 16 ug/ml measured for 20 mins by DiSC3(5) dye based analysis; assay type: functional, organism-based; settings: dose 16.0 µg/ml
Staphylococcus aureus [5] = assay: Antimicrobial activity against Staphylococcus aureus incubated for 16 to 18 hrs by broth dilution assay; assay type: functional; settings: time 16-18 hrs
Staphylococcus aureus [6] = assay: Induction of inner membrane permeability in Staphylococcus aureus assessed as increase in fluorescence intensity measured for 20 mins by PI dye based analysis; assay type: functional, organism-based
Staphylococcus aureus [7] = assay: Induction of cytoplasmic membrane depolarization in Staphylococcus aureus assessed as increase in fluorescence intensity measured for 20 mins by DiSC3(5) dye based analysis; assay type: functional, organism-based
Staphylococcus aureus [8] = assay: Induction of inner membrane permeability in Staphylococcus aureus assessed as increase in fluorescence intensity at 32 ug/ml measured for 20 mins by PI dye based analysis; assay type: functional, organism-based; settings: dose 32.0 µg/ml
Staphylococcus aureus [9] = assay: Induction of cytoplasmic membrane depolarization in Staphylococcus aureus assessed as increase in fluorescence intensity at 32 ug/ml measured for 20 mins by DiSC3(5) dye based analysis; assay type: functional, organism-based; settings: dose 32.0 µg/ml
Staphylococcus aureus [10] = assay: Antibacterial activity against rifampicin-induced persistant Staphylococcus aureus assessed as decrease in CFU at 100 times MIC measured for 10 hrs; assay type: functional, organism-based
Staphylococcus aureus [11] = assay: Antibacterial activity against Staphylococcus aureus assessed as effect on quiescent cells at 100 to 200 times MIC incubated for 24 hrs; assay type: functional, organism-based
Staphylococcus aureus [12] = assay: Induction of resistance development in norfloxacin-resistant Staphylococcus aureus assessed as fold increase in MIC at sub-MIC measured after 20 passages relative to control; assay type: functional
Staphylococcus aureus [13] = assay: Disruption of cell membrane in Staphylococcus aureus assessed as nucleic acid leakage at 32 ug/ml measured after 2 hrs by fluorescence based analysis; assay type: functional, organism-based; settings: dose 32.0 µg/ml
Staphylococcus aureus [14] = assay: Disruption of cell membrane in Staphylococcus aureus assessed as protein leakage at 32 ug/ml measured after 2 hrs by fluorescence based analysis; assay type: functional, organism-based; settings: dose 32.0 µg/ml
Staphylococcus aureus [15] = assay: Induction of resistance development in Staphylococcus aureus assessed as fold increase in MIC at sub-MIC measured after 20 passages relative to control; assay type: functional
Staphylococcus aureus [16] = assay: Inhibition of biofilm formation in Staphylococcus aureus assessed as reduction in number of live bacterial count at 16 times MIC incubated for 24 hrs; assay type: functional

MIC (Escherichia coli) [µg/mL] | MIC (Enterococcus faecalis) [µg/mL] | MIC [2] [µg/mL] | MIC (Staphylococcus aureus [5]) [µg/mL] | SMILES | Activity (Staphylococcus aureus [1]) | HC50 at 1 h [3] [µg/mL] | Activity (Staphylococcus aureus [4]) | other results
> 128 | 16 | > 128 | 0.063 | CCCCCCCCCCNC(=O)c1cc[n+](CC2=C(C(=O)O)N3C(=O)[C@@H](NC(=O)Cc4ccccc4)[C@H]3SC2)cc1.[I-] | inactive | 321 | inactive | 
> 128 | 16 | > 128 | 2 | CCCCCCCCCCCCCCNC(=O)c1ccc[n+](CC2=C(C(=O)O)N3C(=O)[C@@H](NC(=O)Cc4ccccc4)[C@H]3SC2)c1.[I-] | inactive | 155 | inactive | 
64 | 8 | 32 | 16 | CCCCCCCC[n+]1ccc(C(=O)N[C@@H]2C(=O)N3C(C(=O)OC(c4ccccc4)c4ccccc4)=C(COC(C)=O)CS[C@H]23)cc1.[I-] |  |  |  | Activity (Staphylococcus aureus [6]): Active; Activity (Staphylococcus aureus [7]): Active
128 | 8 | 128 | 4 | CCCCCCCCCCCCCCCC[n+]1ccc(-c2cc[n+](CC3=C(C(=O)OCc4ccc(OC)cc4)N4C(=O)[C@@H](NC(=O)Cc5ccccc5)[C@H]4SC3)cc2)cc1.[I-].[I-] |  | 109 |  | Activity (Staphylococcus aureus [8]): Active; Activity (Staphylococcus aureus [9]): Active
> 128 | 16 | > 128 | 4 | CCCCCCCCCCCCCCNC(=O)c1cc[n+](CC2=C(C(=O)O)N3C(=O)[C@@H](NC(=O)Cc4ccccc4)[C@H]3SC2)cc1.[I-] | inactive | 151 | inactive | 
> 128 | 8 | > 128 | 0.25 | CCCCCCCCCCCCNC(=O)c1cc[n+](CC2=C(C(=O)O)N3C(=O)[C@@H](NC(=O)Cc4ccccc4)[C@H]3SC2)cc1.[I-] | inactive | 254 | inactive | 
> 128 | > 128 | > 128 | > 128 | CCCCCCCC[n+]1ccc(C(=O)N[C@@H]2C(=O)N3C(C(=O)O)=C(COC(C)=O)CS[C@H]23)cc1.[I-] |  |  |  | Activity (Staphylococcus aureus [6]): inactive; Activity (Staphylococcus aureus [7]): inactive
 |  |  |  | CO/N=C(\C(=O)N[C@@H]1C(=O)N2C(C(=O)O)=C(COC(C)=O)CS[C@H]12)c1csc(N)n1 |  |  |  | Activity (Staphylococcus aureus [10]): inactive; Activity (Staphylococcus aureus [11]): inactive
 |  |  |  | O=C(O)c1cn(C2CC2)c2cc(N3CCNCC3)c(F)cc2c1=O [CIPROFLOXACIN] |  |  |  | Activity (Staphylococcus aureus [10]): inactive; fold change (FC) (Staphylococcus aureus [12]): 64
32 | 2 | 32 | 2 | CCCCCCCCCC[n+]1ccc(C(=O)N[C@@H]2C(=O)N3C(C(=O)OC(c4ccccc4)c4ccccc4)=C(COC(C)=O)CS[C@H]23)cc1.[I-] |  |  |  | Activity (Staphylococcus aureus [6]): Active; Activity (Staphylococcus aureus [7]): Active
> 128 | 16 | > 128 | 0.5 | CCCCCCCCCCCCNC(=O)c1ccc[n+](CC2=C(C(=O)O)N3C(=O)[C@@H](NC(=O)Cc4ccccc4)[C@H]3SC2)c1.[I-] | inactive | 291 | inactive | 
 |  |  |  | CO[C@H]1/C=C/O[C@@]2(C)Oc3c(C)c(O)c4c(O)c(c(/C=N/N5CCN(C)CC5)c(O)c4c3C2=O)NC(=O)/C(C)=C\C=C\[C@H](C)[C@H](O)[C@@H](C)[C@@H](O)[C@@H](C)[C@H](OC(C)=O)[C@@H]1C |  |  |  | Activity (Staphylococcus aureus [10]): inactive
> 128 | 16 | > 128 | 0.063 | CCCCCCCCNC(=O)c1cc[n+](CC2=C(C(=O)O)N3C(=O)[C@@H](NC(=O)Cc4ccccc4)[C@H]3SC2)cc1.[I-] | inactive | > 1280 | inactive | 
128 | 16 | 128 | 0.5 | CCCCCCCCCC[n+]1ccc(-c2cc[n+](CC3=C(C(=O)OCc4ccc(OC)cc4)N4C(=O)[C@@H](NC(=O)Cc5ccccc5)[C@H]4SC3)cc2)cc1.[I-].[I-] |  | > 1280 |  | Activity (Staphylococcus aureus [8]): Active; Activity (Staphylococcus aureus [9]): Active
32 | 4 | 32 | 1 | CCCCCCCCCCCC[n+]1ccc(-c2cc[n+](CC3=C(C(=O)OCc4ccc(OC)cc4)N4C(=O)[C@@H](NC(=O)Cc5ccccc5)[C@H]4SC3)cc2)cc1.[I-].[I-] |  | 273 |  | Activity (Staphylococcus aureus [8]): Active; Activity (Staphylococcus aureus [9]): Active
> 128 | 8 | > 128 | 0.031 | CCCCCCCCNC(=O)c1ccc[n+](CC2=C(C(=O)O)N3C(=O)[C@@H](NC(=O)Cc4ccccc4)[C@H]3SC2)c1.[I-] | inactive | > 1280 | inactive | 
 |  |  |  | CC(=O)NC[C@H]1CN(c2ccc(N3CCOCC3)c(F)c2)C(=O)O1 [LINEZOLID] |  |  |  | fold change (FC) (Staphylococcus aureus [12]): 4
> 128 | 128 | > 128 | 64 | CCCCCC[n+]1ccc(C(=O)N[C@@H]2C(=O)N3C(C(=O)OC(c4ccccc4)c4ccccc4)=C(COC(C)=O)CS[C@H]23)cc1.[I-] |  |  |  | Activity (Staphylococcus aureus [6]): Active; Activity (Staphylococcus aureus [7]): Active
 |  |  |  | CCn1cc(C(=O)O)c(=O)c2cc(F)c(N3CCNCC3)cc21 [NORFLOXACIN] |  |  |  | fold change (FC) (Staphylococcus aureus [15]): 64; fold change (FC) (Staphylococcus aureus [12]): 64
> 128 | 16 | > 128 | 0.063 | CCCCCCCCCCNC(=O)c1ccc[n+](CC2=C(C(=O)O)N3C(=O)[C@@H](NC(=O)Cc4ccccc4)[C@H]3SC2)c1.[I-] | inactive | 318 | inactive | 
> 128 | > 128 | > 128 | > 128 | CCCCCC[n+]1ccc(C(=O)N[C@@H]2C(=O)N3C(C(=O)O)=C(COC(C)=O)CS[C@H]23)cc1.[I-] |  |  |  | Activity (Staphylococcus aureus [6]): inactive; Activity (Staphylococcus aureus [7]): inactive
 |  |  |  | C[C@H]1COc2c(N3CCN(C)CC3)c(F)cc3c(=O)c(C(=O)O)cn1c23 [LEVOFLOXACIN ANHYDROUS] |  |  |  | fold change (FC) (Staphylococcus aureus [12]): 16

SMILES | MIC (Escherichia coli) [µg/mL] | MIC (Enterococcus faecalis) [µg/mL] | MIC [2] [µg/mL] | MIC (Staphylococcus aureus [5]) [µg/mL] | Activity (Staphylococcus aureus [1]) | HC50 at 1 h [3] [µg/mL] | Activity (Staphylococcus aureus [4]) | other results
CCCCCCCC[n+]1ccc(SCC2=C(C(=O)O)N3C(=O)[C@@H](NC(=O)Cc4ccccc4)[C@H]3SC2)cc1.O=C([O-])C(F)(F)F | 128 | 4 | 128 | 0.063 |  |  |  | Activity (Staphylococcus aureus [6]): inactive; Activity (Staphylococcus aureus [7]): inactive
CCCCCCCC[n+]1ccc(SCC2=C(C(=O)OCc3ccc(OC)cc3)N3C(=O)[C@@H](NC(=O)Cc4ccccc4)[C@H]3SC2)cc1.O=C([O-])C(F)(F)F | 64 | 8 | 128 | 0.063 |  |  |  | Activity (Staphylococcus aureus [6]): Active; Activity (Staphylococcus aureus [7]): Active
CCCCCCCCCCCC[n+]1ccc(-c2cc[n+](CC3=C(C(=O)[O-])N4C(=O)[C@@H](NC(=O)Cc5ccccc5)[C@H]4SC3)cc2)cc1.O=C([O-])C(F)(F)F | 128 | 4 | > 128 | 0.25 |  | 333 |  | Activity (Staphylococcus aureus [13]): inactive; Activity (Staphylococcus aureus [8]): Active; Activity (Staphylococcus aureus [14]): inactive; Activity (Staphylococcus aureus [9]): Active
CN[C@H](CC(C)C)C(=O)N[C@H]1C(=O)N[C@@H](CC(N)=O)C(=O)N[C@H]2C(=O)N[C@H]3C(=O)N[C@H](C(=O)N[C@H](C(=O)O)c4cc(O)cc(O)c4-c4cc3ccc4O)[C@H](O)c3ccc(c(Cl)c3)Oc3cc2cc(c3O[C@@H]2O[C@H](CO)[C@@H](O)[C@H](O)[C@H]2O[C@H]2C[C@](C)(N)[C@H](O)[C@H](C)O2)Oc2ccc(cc2Cl)[C@H]1O [VANCOMYCIN] |  | 2 (≈ 1.38 µM) |  |  |  | > 1280 |  | Activity (Staphylococcus aureus [16]): ~1 10^5CFU/ml
